Results on 13 molecules are retold here after PubChem BioAssay (NCI).

Where “and” joins values, the source holds several entries; their conditions need not be identical. Equal values may be shown once.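 Cultured in 96-well plates, cells were exposed to test compound for 48 hours across five concentrations. At the GI50, growth is halved. TGI: total growth inhibition.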

Among the test systems are IGROV1 ovarian; NCI-H522 lung; SF-539 CNS; ACHN renal; SR leukemia; RXF 393 renal; MCF7 breast; SNB-19 CNS; T-47D breast; MDA-MB-231 breast.
What all share (test): NCI-60 cell line screen, 48 h

As to `CS(=O)(=O)CCNCc1nc(-c2ccc3ncnc(Nc4ccc(F)c(Cl)c4)c3c2)cs1`, the GI50 with IGROV1 ovarian was 7.39 µM; with NCI-H522 lung, 3.34 µM; with SF-539 CNS it was > 25 µM; with ACHN renal it was 0.785 µM; in the experiment with SR leukemia it was > 14 µM; with RXF 393 renal, 9.75 µM. The GI50 in the experiment with MCF7 breast was > 23.3 µM; in the experiment on SNB-19 CNS, > 25 µM; in the experiment on T-47D breast, 8.57 µM; in the experiment on MDA-MB-231 breast, 23.6 µM. Besides, the TGI in the experiment with IGROV1 ovarian is > 25 µM; in the experiment with NCI-H522 lung it was > 25 µM; with SF-539 CNS it was > 25 µM; in the experiment on ACHN renal, > 25 µM; with SR leukemia it was > 22.2 µM; in the experiment on RXF 393 renal, > 25 µM. For the same molecule, the TGI in the experiment on MCF7 breast, in the experiment on SNB-19 CNS, in the experiment on T-47D breast and in the experiment with MDA-MB-231 breast was > 25 µM each time.

Consider `Cc1ncc(CN=Cc2ccc(Cl)cc2)c(N)n1`, for which the TGI in the experiment with IGROV1 ovarian, in the experiment on NCI-H522 lung, with SF-539 CNS, in the experiment on ACHN renal, with SR leukemia and in the experiment with RXF 393 renal was > 100 µM in each case. In addition, the TGI in the experiment on MCF7 breast, in the experiment with SNB-19 CNS, with T-47D breast and in the experiment on MDA-MB-231 breast was > 100 µM each time.

`O=P(O)(CCP(=O)(O)c1ccccc1)c1ccccc1`: the TGI in the experiment on IGROV1 ovarian, with NCI-H522 lung, with SF-539 CNS, with ACHN renal, with SR leukemia and in the experiment on RXF 393 renal was > 100 µM each time. Further, the TGI in the experiment on MCF7 breast, in the experiment with SNB-19 CNS, in the experiment with T-47D breast and in the experiment on MDA-MB-231 breast was > 100 µM throughout.

As for `N#Cc1c(-c2nc3ccccc3s2)c(=O)oc2cc(O)ccc12`, the TGI with IGROV1 ovarian, in the experiment on NCI-H522 lung, in the experiment with SF-539 CNS, in the experiment on ACHN renal, with SR leukemia and in the experiment on RXF 393 renal was > 100 µM each time. Besides, the TGI is > 100 µM with MCF7 breast, > 100 µM in the experiment with SNB-19 CNS, 78.2 µM with T-47D breast and 82.5 µM in the experiment with MDA-MB-231 breast.

With `Cc1c2c(nn1-c1ccc(S(=O)(=O)NC(=S)Nc3ccccc3)cc1)-c1ccccc1CC2`, the GI50 with IGROV1 ovarian was 20.6 µM; in the experiment on NCI-H522 lung, 21.5 µM; with SF-539 CNS it was > 50 µM; in the experiment on ACHN renal, > 50 µM; in the experiment with SR leukemia, > 50 µM; in the experiment on RXF 393 renal it was > 50 µM. For the same molecule, the GI50 in the experiment on MCF7 breast is 11.5 µM; in the experiment with SNB-19 CNS, > 50 µM; in the experiment with T-47D breast, > 50 µM; in the experiment on MDA-MB-231 breast, > 50 µM. The TGI in the experiment with IGROV1 ovarian, in the experiment on NCI-H522 lung, in the experiment with SF-539 CNS, with ACHN renal, in the experiment with SR leukemia and in the experiment with RXF 393 renal was > 50 µM in each case. Besides, the TGI is 34.3 µM with MCF7 breast, > 50 µM in the experiment on SNB-19 CNS, > 50 µM in the experiment on T-47D breast and > 50 µM with MDA-MB-231 breast.

On to `CNC(=O)c1cc(OC2CCC(NC(=O)Nc3ccc(Cl)c(C(F)(F)F)c3)CC2)ccn1` (configuration not stated), for which the GI50 was 13.4 µM in the experiment with IGROV1 ovarian; 4.16 µM with NCI-H522 lung; 12 µM in the experiment with SF-539 CNS; 7.76 µM in the experiment with ACHN renal; 4.42 µM in the experiment with SR leukemia; 10.5 µM in the experiment on RXF 393 renal. For the same molecule, the GI50 is 3.48 µM with MCF7 breast, 7.91 µM with SNB-19 CNS, 5.31 µM in the experiment with T-47D breast and 3.23 µM in the experiment with MDA-MB-231 breast. Further, the TGI with IGROV1 ovarian is 39.6 µM; in the experiment with NCI-H522 lung it was 16.9 µM; in the experiment on SF-539 CNS it was 29.6 µM; in the experiment with ACHN renal, 31.5 µM; in the experiment on SR leukemia it was 32.7 µM; in the experiment with RXF 393 renal, 24.5 µM. Besides, the TGI with MCF7 breast came to 18.1 µM; with SNB-19 CNS it was 32.2 µM; with T-47D breast it was 39.4 µM; in the experiment on MDA-MB-231 breast it was 15.9 µM.

As to `Cc1ccc(CNc2c3ccccc3nc3ccccc23)cc1`, the GI50 in the experiment with IGROV1 ovarian is 1.88 µM; in the experiment on NCI-H522 lung, 1.67 µM; in the experiment with SF-539 CNS it was 1.57 µM; in the experiment on ACHN renal it was 1.63 µM; with SR leukemia, 1.56 µM; in the experiment with RXF 393 renal, 1.68 µM. The GI50 in the experiment with MCF7 breast is 1.99 µM; with SNB-19 CNS, 3.33 µM; in the experiment on T-47D breast it was 1.87 µM; in the experiment on MDA-MB-231 breast it was 1.8 µM. Moreover, the TGI with IGROV1 ovarian was 5.56 µM; in the experiment with NCI-H522 lung it was 4.75 µM; in the experiment with SF-539 CNS, 3.01 µM; with ACHN renal it was 3.95 µM; in the experiment with SR leukemia it was 6.22 µM; with RXF 393 renal it was 3.41 µM. In addition, the TGI in the experiment on MCF7 breast was found to be 5.03 µM; in the experiment on SNB-19 CNS, 14.2 µM; with T-47D breast, 4.83 µM; with MDA-MB-231 breast, 4.52 µM.

`COc1ccc2c(c1)[nH]c(=O)c1c3cc(C)c(C)cc3cn21`: the GI50 was < 0.0188 µM in the experiment on IGROV1 ovarian; < 0.0115 µM in the experiment on NCI-H522 lung; 0.0186 µM in the experiment with SF-539 CNS; < 0.0173 µM in the experiment on ACHN renal; < 0.0152 µM in the experiment with SR leukemia; < 0.01 µM with RXF 393 renal. Moreover, the GI50 in the experiment with MCF7 breast is 0.0927 µM; in the experiment with SNB-19 CNS, < 0.0226 µM; in the experiment on T-47D breast, 1.17 µM; in the experiment with MDA-MB-231 breast, 0.0291 µM. For the same molecule, the TGI is 0.215 µM in the experiment on IGROV1 ovarian; < 0.0275 µM with NCI-H522 lung; 0.0578 µM in the experiment on SF-539 CNS; 1.58 µM with ACHN renal; 0.224 µM in the experiment with SR leukemia; 1.22 µM in the experiment on RXF 393 renal. For the same molecule, the TGI in the experiment with MCF7 breast turned out to be 1.16 µM; in the experiment with SNB-19 CNS it was 4.66 µM; with T-47D breast, 2.9 µM; in the experiment on MDA-MB-231 breast, 1.53 µM.

Turning to `CN1CC[C@@H](c2c(O)cc(O)c3c(=O)cc(-c4ccccc4Cl)oc23)[C@@H](O)C1`, the TGI in the experiment with IGROV1 ovarian was > 100 µM; in the experiment with NCI-H522 lung it was 0.222 µM and 0.319 µM; with SF-539 CNS it was 0.141 µM and 0.057 µM and 0.148 µM; in the experiment with ACHN renal it was 15.6 µM; in the experiment on SR leukemia it was 0.0468 µM and 0.277 µM; in the experiment with RXF 393 renal, 0.0892 µM and 0.0495 µM and 0.0428 µM. Moreover, the TGI is > 77.4 µM with MCF7 breast; > 37.3 µM with SNB-19 CNS; 0.613 µM and 2.86 µM in the experiment on MDA-MB-231 breast. In addition, the GI50 with SF-539 CNS is 0.0688 µM and 0.0197 µM; in the experiment on ACHN renal, 0.0346 µM; with SR leukemia, 0.014 µM; in the experiment with RXF 393 renal, 0.0481 µM and 0.0218 µM and 0.0196 µM; in the experiment on MCF7 breast, 0.0629 µM and 0.046 µM; with SNB-19 CNS it was 0.103 µM. Also, the GI50 in the experiment on T-47D breast was 0.0824 µM and 0.0669 µM and 0.0342 µM; in the experiment with MDA-MB-231 breast, 0.168 µM.

As to `O=[N+]([O-])C1C(c2ccccc2)C12c1ccccc1-c1ccccc12` (configuration not stated), the GI50 is 3.41 µM in the experiment on IGROV1 ovarian; 0.68 µM with NCI-H522 lung; 1.31 µM with SF-539 CNS; 1.47 µM in the experiment with ACHN renal; 0.348 µM in the experiment with SR leukemia; 0.845 µM in the experiment with RXF 393 renal. The GI50 in the experiment on MCF7 breast was 0.351 µM; in the experiment with SNB-19 CNS, 12.4 µM; in the experiment with T-47D breast it was 2.73 µM; in the experiment with MDA-MB-231 breast, 0.633 µM. Also, the TGI in the experiment with IGROV1 ovarian stood at 30.1 µM; in the experiment with NCI-H522 lung, 13 µM; in the experiment with SF-539 CNS, 9 µM; in the experiment on ACHN renal it was 19.1 µM; with SR leukemia, 4.22 µM; in the experiment on RXF 393 renal, 6.24 µM. Also, the TGI in the experiment with MCF7 breast is 30.8 µM; in the experiment with SNB-19 CNS, > 100 µM; in the experiment on T-47D breast, 23.2 µM; in the experiment with MDA-MB-231 breast, 13.5 µM.

Turning to `COc1cccc(C2CC(C)(N3CCCC3)Oc3cc4c(cc32)OCO4)c1O` (configuration not stated), the TGI was 99.2 µM in the experiment with IGROV1 ovarian; 47.2 µM in the experiment with NCI-H522 lung; 46.1 µM with SF-539 CNS; > 100 µM in the experiment with ACHN renal; 31.6 µM with SR leukemia; > 80.6 µM in the experiment on RXF 393 renal. In addition, the TGI is > 91.2 µM in the experiment with MCF7 breast, > 100 µM in the experiment on SNB-19 CNS, > 100 µM with T-47D breast and 80.5 µM in the experiment on MDA-MB-231 breast.

On to `O=C1NCc2ccc3c(-c4cccc(Cl)c4)c[nH]c3c21`, for which the GI50 was 0.316 µM in the experiment on IGROV1 ovarian; 0.225 µM in the experiment on NCI-H522 lung; 0.166 µM in the experiment on SF-539 CNS; 0.333 µM with ACHN renal; 0.0849 µM in the experiment with SR leukemia; 0.296 µM in the experiment with RXF 393 renal. In addition, the GI50 is 0.177 µM in the experiment on MCF7 breast, 0.29 µM in the experiment on SNB-19 CNS, 0.277 µM with T-47D breast and 0.838 µM in the experiment on MDA-MB-231 breast. The TGI in the experiment with IGROV1 ovarian was > 50 µM; in the experiment with NCI-H522 lung it was > 39 µM; in the experiment with SF-539 CNS, 3.29 µM; in the experiment with ACHN renal it was > 50 µM; with SR leukemia, > 50 µM; in the experiment on RXF 393 renal it was > 15.4 µM. Further, the TGI was > 50 µM with MCF7 breast, > 50 µM with SNB-19 CNS, > 50 µM with T-47D breast and > 25.7 µM with MDA-MB-231 breast.

As for `COc1cc(/C(C#N)=C/c2ccc3c(c2OC)OCO3)cc2c1OCO2`, the GI50 in the experiment with IGROV1 ovarian was 0.165 µM; in the experiment on NCI-H522 lung, 0.0324 µM; in the experiment with SF-539 CNS, 0.0964 µM; in the experiment on ACHN renal, 2.43 µM; in the experiment with SR leukemia, 0.0244 µM; in the experiment with RXF 393 renal, 0.174 µM. Besides, the GI50 was 0.0482 µM in the experiment on MCF7 breast, 0.236 µM with SNB-19 CNS, 6.18 µM in the experiment with T-47D breast and 0.753 µM in the experiment with MDA-MB-231 breast. The TGI with IGROV1 ovarian is 42.3 µM; in the experiment with NCI-H522 lung it was 0.283 µM; in the experiment with SF-539 CNS, 2.29 µM; in the experiment with ACHN renal it was > 58.9 µM; in the experiment on SR leukemia, 5.37 µM; in the experiment on RXF 393 renal, 0.753 µM. Besides, the TGI is > 100 µM in the experiment on MCF7 breast, 20.4 µM in the experiment with SNB-19 CNS, > 83.6 µM in the experiment on T-47D breast and 19.4 µM in the experiment with MDA-MB-231 breast.
